These results are taken from publication PMC11923649, “Novel C-2 Aromatic Heterocycle-Substituted Triterpenoids Inhibit Hedgehog Signaling in GLI1 Overexpression Cancer Cells” (ACS Omega, 2025).

The test system of data set [1] is CCRF-CEM. The data set is described as follows: MTS cytotoxicity assay, 72 h, CCRF-CEM. The following applies: Table 1; for IC50: Homo sapiens, CCRF-CEM, 72 h, MTS; for SI (selectivity index): IC50 of CCRF-CEM line vs average of both fibroblasts (BJ and MRC-5). In kind it is cell-based. In a few lines: (§1)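 Treatment ran 72 h at 37 °C under 5% CO2, starting the day after plating, across 50–0.0975 μmol/L (dilution factor 2). Metabolic conversion of MTS was read at 490 nm to obtain IC50.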
(In general: Formazan colour is commonly taken as a measure of viable cells.)

The test system of data set [2] is HCT 116. Description: MTS cytotoxicity assay, 72 h, HCT 116. In kind it is cell-based. The following applies: Homo sapiens, HCT-116, 72 h. In a few lines: as §1
Data set [3] relates to U2OS. Description: MTS cytotoxicity assay, 72 h, U2OS. The class given is cell-based. As to conditions: Homo sapiens.
Data set [4] has as its system K562-TAX. The data set is described as follows: MTS cytotoxicity assay, 72 h, K562-TAX. In kind it is cell-based.
The subject of data set [5] is Gli-mediated transcription (U-87 MG-Gli-FLuc reporter). Description: U-87 MG-Gli-FLuc reporter assay. As to conditions: 24 h, 12.5–0.78 μmol/L; compared with GANT-61 at equimolar concentration. The class given is cell-based, human. On the procedure:
(§2) A possible direct inhibition of the reporter (Fluc) and luminescence itself, which could lead to false positive results, was also ruled out in a cellular as well as a noncellular model (data not shown).
(§3) Figure 1 Effect of compounds 11a, 11b, and positive control GANT-61 on Gli1 activation and cell viability measured using the U-87 MG-Gli-FLuc reporter assay. Data are expressed as percentages of control (100%) and represent the mean of three independent experiments with the standard deviation. To distinguish specific inhibition of Gli activation from a nonspecific cellular response, an MTS assay was performed simultaneously under the same conditions in 96-well transparent plates. Statistical analysis of Gli1 activity was performed using one-sample Student’s t-test (mu = 100): *, p < 0.05; **, p < 0.01. The same analysis was used to assess cytotoxicity by MTS assay: #, p < 0.05; ##, p < 0.01.
(§4) The U-87 MG-Gli-FLuc reporter cell line was developed from the human glioblastoma line U-87 MG obtained from ATCC and cultured in EMEM medium supplemented with 10% FBS, 1 mmol/L sodium pyruvate, and a 1 mmol/L nonessential amino acid mixture. […] Panels were placed on a shaker to achieve complete cell lysis, and luminescence was measured after 3 min using an EnVision plate reader.

Data set [6] deals with U-87 MG-Gli-FLuc cells. Description: MTS viability assay run in parallel with U-87 MG-Gli-FLuc reporter assay. In kind it is cell-based, human. The following applies: up to a dose of 6.25 μmol/L, 24 h. On the procedure: as §2, §3, §4
The nature of data set [7]: Parallel Artificial Membrane Permeability Assay (PAMPA). The class given is in vitro ADME. As to conditions: read-out: PAMPA log Pe (converted). From the text:
The Parallel Artificial Membrane Permeability Assay (PAMPA) has emerged as a primary screen for determining passive transcellular permeability. […] The Caco-2 and MDCK-MDR1 permeability assays are established models of intestinal[37] and blood-brain barriers, respectively.[38]
On the technique in general: PAMPA measures passive passage across an artificial lipid membrane.

In data set [8] the test system is K562 (chronic myelogenous leukemia). Description: MTS cytotoxicity assay, 72 h, K562. In kind it is cell-based. As to conditions: Homo sapiens, Table 1. In a few lines: as §1

Usually IC50 stands for the point on the concentration scale where inhibition reaches its midpoint. A higher IC50 goes with lower potency. On to `C=C(C)[C@@H]1CC[C@]2(C(=O)O)CC[C@]3(C)C(CCC4[C@@]5(C)C=C(c6ccco6)C(=O)C(C)(C)C5CC[C@]43C)C12` (stereo partly drawn) [Compound 11a, 2-(Furan-2-yl)-3-oxolupa-1,20(29)-dien-28-oic acid], for which the IC50 in data set [1] was found to be 8.7 µM; in data set [2] (Table 1), 11 µM; in data set [2] (full Table S1) it was 11.4 µM; in data set [3] (Table 1), 21 µM; in data set [3] (full Table S1), 20.9 µM; in data set [4] (Table 1), 14 µM. Moreover, the figures for the IC50 in data set [4] (full Table S1) and in data set [8] were 13.7 µM and 6.3 µM, respectively. Also, the “SI (selectivity index)” value in data set [1] came out at 3.8. The Gli transcriptional activity entry in data set [5] is on record as “inhibited Gli transcriptional activity in a dose-response manner”. Moreover, the “Inhibition of proliferation or cell death induction (MTS) under reporter conditions” value in data set [6] is given as “not accompanied by inhibition of proliferation or cell death induction”. Besides, in data set [7], the Papp was 0.0158 ×10⁻⁶ cm/s.

In the case of `C=C(C)[C@@H]1CC[C@]2(C(=O)O)CC[C@]3(C)C(CCC4[C@@]5(C)C=C(c6ccoc6)C(=O)C(C)(C)C5CC[C@]43C)C12` (stereo partly drawn) [Compound 11b, 2-(Furan-3-yl)-3-oxolupa-1,20(29)-dien-28-oic acid], the IC50 in data set [1] amounted to 6 µM; in data set [2] (Table 1), 20 µM; in data set [2] (full Table S1) it was 19.9 µM; in data set [3] (Table 1), 26 µM; in data set [3] (full Table S1), 26.3 µM; in data set [4] (Table 1), 16 µM. Besides, the figures for the IC50 in data set [4] (full Table S1) and in data set [8] were 15.8 µM and 9.6 µM, respectively. Besides, the “SI (selectivity index)” value in data set [1] turned out to be 5. Also, in data set [5], the Gli transcriptional activity result is “inhibited Gli transcriptional activity in a dose-response manner”. The “Inhibition of proliferation or cell death induction (MTS) under reporter conditions” value in data set [6] was “not accompanied by inhibition of proliferation or cell death induction”. Also, the Papp in data set [7] is 0.0162 ×10⁻⁶ cm/s.
